Results published in US20210268070A1, “Use of Immunomodulators to Control Infection and Stimulate Healing in Normal and Diabetic Wounds” (priority 2018, published 2021).

Legend:
[1] = system: inflammatory cytokines; test: Production of inflammatory cytokines in normal wound; format: in vivo, mice
Procedure: FIGS. 7A and 7B illustrate that CCL3 treatment increases the production of inflammatory cytokines in a normal wound. N=4; Significance determined as compared to PBS *<0.05, **p<0.01, ***p<0.001.
FIGS. 8A and 8B illustrate that LPS and fMLP treatment increases the production of inflammatory cytokines in a normal wound. N=4; LPS (10 ng) and fMLP (100 nM) directly added to wounds at the time of infection after wounding. Significance determined as compared to PBS *<0.05, **p<0.01.
Tissue-Tek O.C.T. (Sakura); Lysing Matrix D (MP Biomedicals); Collagenase (Roche Diagnostics), Hematoxylin and eosin (H&E); DNase 1 (Sigma-Aldrich); Hyluronidase, Streptozotocin (Sigma-Aldrich); Trizol (Invitrogen); CD45 antibody (eBioscience, Inc); Ly6C; Ly6G; CD11b; CD3 (BioLegend); CD68; GAPDH (Sigma-Aldrich). Ly6G and CD68 (Abcam); Primer pairs for GAPDH were from Qiagen. Masson's trichrome stain (Sigma-Aldrich); Picrosirius red (Abcam); Fibronectin (Chemicon International); Insulin slow-release capsules (Linplant; LinShin, Toronto, Canada) CCL3 (R&D Systems) fMLP (Sigma-Aldrich); II-1β ELISA (R&D Systems); TNF-α ELISA (R&D Systems).

[2] = system: S. aureus; test: S. aureus surgical site infection, implant model; format: in vivo; details: S. aureus 10^6 CFU, titers after 1 day, compared to PBS, FIGS. 5A and 5B
Source text: FIGS. 5A and 5B illustrate that PAMPs are effective in controlling S. aureus surgical site infection as prophylactic antibiotic standard therapy. S. aureus (10^6 CFU). S. aureus titers after 1 day. Significance determined as compared to PBS *<0.05, **p<0.01, ***p<0.001, ****p<0.0001.
We next examined the impact of CCL3 topical treatment on leukocyte migration by H&E staining, and on leukocyte activation by myeloperoxidase (MPO) measurements by ELISA. (MPO is primarily used as a marker for neutrophil activation but it can also be expressed to lesser extent in macrophages).
Implant surgery and wound surgery and surgical site infection are performed according to the following method. On the day of surgery, all mice are anesthetized by an intraperitoneal injection of a ketamine/xylazine mixture (90 mg/kg ketamine+5 mg/kg xylazine for mice). The back of the animals is shaved using an electric shave and scrubbed with alcohol swabs 3 times, a topical antiseptic solution (Hibiclens; chlorhexidine gluconate) is applied to the skin. The surgical procedures are performed with sterile instruments, sterile surgical gloves, and aseptic techniques as follows. For wound surgical procedure, a sterile biopsy punch (5-7 mm diameter) is used to punch through the full thickness of the back skin below the shoulder blades. Four 5-7 mm skin wounds are made on the back of each mouse. […]

[3] = LPS (10 ng) and fMLP (100 nM) directly added to wounds at the time of infection after wounding, FIGS. 8A and 8B

| Molecule | production of inflammatory cytokines in a normal wound [1, 3] | infection control in the implant model against S. aureus [2] | production of inflammatory cytokines in a normal wound ([1]; CCL3 treatment, compared to PBS, FIGS. 7A and 7B) |
| --- | --- | --- | --- |
| CSCC[C@H](NC=O)C(=O)N[C@@H](CC(C)C)C(=O)N[C@@H](Cc1ccccc1)C(=O)O [fMLP, N-Formylmethionyl-leucyl-phenylalanine] | increases | improved | – |
| lipopolysaccharide [LPS] | increases | improved | – |
| Chemokine (C-C motif) ligand 3 (protein, listed as Homo sapiens, class 1 immunomodulator) MQVSTAALAVLLCTMALCNQFSASLAADTPTACCFSYTSRQIPQNFIADYFETSSQCSKPGVIFLTKRSRQVCADPSEEWVQKYVSDLELSA | – | – | increases |
